From patent US9102648B1, “Bioavailable diacylhydrazine ligands for modulating the expression of exogenous genes via an ecdysone receptor complex” (Intrexon Corporation, priority 2003, dated 2015)

Biological target: GAL4 DBD (1-147)-CfEcR(DEF)/VP16AD-βRXREF-LmUSPEF (Choristoneura fumiferana, UniProt O77240)
Experiment: cell-based
Details: for Fold Induction, 27-63 Assay, 3.3 uM: 3.3 uM ligand; for Fold Induction, 27-63 Assay, 3.3 uM / Fold Induction, 27-63 Assay, 33 uM: RLU ligand treated / RLU DMSO treated cells; for Fold Induction, 27-63 Assay, 3.3 uM / Fold Induction, 27-63 Assay, 33 uM / EC50: average of two wells; for Fold Induction, 27-63 Assay, 33 uM: 33 uM ligand; for 27-63 assay Rel Max FI: maximum fold induction at any concentration relative to that of GS-E ligand, CHO 27-63 cells; for EC50: read-out: 27-63 assay EC50, CHO 27-63 stable cell line, luciferase reporter

Row | SMILES | Fold Induction, 27-63 Assay, 3.3 uM | Fold Induction, 27-63 Assay, 33 uM | 27-63 assay Rel Max FI | EC50
1 | COc1cccc(C(=O)NN(C(=O)c2cccnc2Cl)C(C)(C)C)c1C [RG-100127] | 49 | 1239 | 0.689 | 6700 nM
2 | COc1ccccc1C(=O)N(NC(=O)c1ccc2c(c1C)OCOC2)C(C)(C)C [RG-100216] | 53 | 1312 | 0.685 | 6970 nM
3 | COc1cc(C(=O)N(NC(=O)c2cccc(OC)c2C)C(C)(C)C)ccc1C [RG-100768] | 1738 | 1852 | 1.039 | 333 nM
4 | COc1cc(C)ccc1C(=O)N(NC(=O)c1cccc(OC)c1C)C(C)(C)C [RG-100769] | 1595 | 1556 | 0.735 | 196 nM
5 | CCc1c(OC)cccc1C(=O)NN(C(=O)c1cc(OC)cc(OC)c1)C(C)(C)C [RG-100778] | 2159 | 2312 | 1.342 | 678 nM
6 | CC(C)(C)N(NC(=O)c1c(F)cccc1F)C(=O)c1cc(Cl)cc(Cl)c1 [RG-100801] | 1341 | 1244 | 0.936 | 2080 nM
7 | CC(=O)c1cccc(C(=O)NN(C(=O)c2cc(C)cc(C)c2)C(C)(C)C)c1C [RG-100814] | 2441 | 2165 | 1.157 | 1500 nM
8 | COc1cc(Cl)ccc1C(=O)N(NC(=O)c1cccc(OC)c1C)C(C)(C)C [RG-100848] | 1181 | 1151 | 0.765 | 322 nM
9 | Cc1cc(C)cc(C(=O)N(NC(=O)c2ccc(CC#N)cc2)C(C)(C)C)c1 [RG-100875] | 34 | 1592 | 1.004 | 8920 nM
10 | COc1cccc(C(=O)NN(C(=O)c2ccc(Cl)cc2F)C(C)(C)C)c1C [RG-100929] | 1080 | 988 | 0.770 | 1050 nM
11 | CCc1ccc(C(=O)NN(C(=O)c2ccccc2[N+](=O)[O-])C(C)(C)C)cc1 [RG-101013] | 927 | 988 | 0.606 | 2140 nM
12 | Cc1cc(C)cc(C(=O)N(NC(=O)c2ccc3c(c2)COCO3)C(C)(C)C)c1 [RG-101016] | 308 | 1347 | 0.703 | 4200 nM
13 | CCc1c(C(=O)NN(C(=O)c2cccc(C)c2)C(C)(C)C)ccc2c1OCCO2 [RG-101036] | 1721 | 1459 | 0.724 | 177 nM
14 | CC(C)(C)N(NC(=O)c1ccc2c(c1)OCO2)C(=O)c1ccc(F)cc1Cl [RG-101048] | 19 | 1453 | 0.708 | 8420 nM
15 | COc1ccc(C(=O)NN(C(=O)c2ccc(F)cc2Cl)C(C)(C)C)cc1 [RG-101057] | 30 | 1008 | 0.648 | 6620 nM
16 | Cc1cc(C)cc(C(=O)N(NC(=O)c2cc3c(cc2C)OCO3)C(C)(C)C)c1 [RG-101088] | 6 | 1743 | 1.159 | 9950 nM
17 | Cc1cc(C)cc(C(=O)N(NC(=O)c2cc3c(cc2Cl)OCO3)C(C)(C)C)c1 [RG-101171] | 395 | 1357 | 0.877 | 4020 nM
18 | CCc1c(OC)cccc1C(=O)NN(C(=O)c1ccc(Cl)cc1OC)C(C)(C)C [RG-101218] | 1097 | 1223 | 0.645 | 128 nM

Row | SMILES | Fold Induction, 27-63 Assay, 3.3 uM | Fold Induction, 27-63 Assay, 33 uM | 27-63 assay Rel Max FI | EC50
19 | COc1cccc(C(=O)NN(C(=O)c2cc(C)ccc2Cl)C(C)(C)C)c1Cl [RG-101248] | 146 | 1033 | 0.790 | 5040 nM
20 | Cc1cc(C)cc(C(=O)N(NC(=O)c2ccc3c(c2Br)OCCO3)C(C)(C)C)c1 [RG-101340] | 1624 | 1549 | 0.964 | 240 nM
21 | COc1cccc(C(=O)NN(C(=O)c2cc(C)cc(Br)c2)C(C)(C)C)c1C [RG-101353] | 3583 | 3835 | 1.168 | 266 nM
22 | COc1cccc(C(=O)NN(C(=O)c2cc(Cl)cc(Br)c2)C(C)(C)C)c1C [RG-101408] | 2445 | 1886 | 1.185 | 336 nM
23 | Cc1cc(C)cc(C(=O)N(NC(=O)c2ccc3c(c2)OC(C)O3)C(C)(C)C)c1 (centres unmarked) [RG-101511] | 1421 | 1207 | 0.762 | 714 nM
24 | COc1cc(C(=O)NN(C(=O)c2cc(C)cc(C)c2)C(C)(C)C)ccc1C [RG-101585] | 154 | 1495 | 0.893 | 5060 nM
25 | CCc1c(C(=O)NN(C(=O)c2cc(C)cc(C)c2)C(C)(C)C)ccc2c1OC(C)O2 (centres unmarked) [RG-101659] | 2283 | 1896 | 1.009 | 347 nM
26 | CCc1cccc(C(=O)NN(C(=O)c2cc(C)cc(C)c2)C(C)(C)C)c1C [RG-101691] | 2249 | 2073 | 0.969 | 250 nM
27 | Cc1cc(C)cc(C(=O)N(NC(=O)c2cccc(OC(F)(F)F)c2C)C(C)(C)C)c1 [RG-101692] | 1798 | 591 | 1.008 | 788 nM
28 | CCc1ccc(C(=O)NN(C(=O)c2cc(C)cc(Cl)c2)C(C)(C)C)cc1 [RG-101774] | 1807 | 1359 | 0.795 | 359 nM
29 | CCc1ccc(C(=O)NN(C(=O)c2cc(C)c(C)c(Cl)c2)C(C)(C)C)cc1 [RG-101863] | 1705 | 636 | 1.043 | 1000 nM
30 | CCc1ccc(C(=O)NN(C(=O)c2cc(C)cc(C)c2)C(C)(C)C)cc1Cl [RG-101864] | 1807 | 1464 | 0.750 | 343 nM
31 | Cc1cc(C)cc(C(=O)N(NC(=O)c2ccc3c(c2)CCCC3)C(C)(C)C)c1 [RG-101887] | 1142 | 1107 | 0.675 | 351 nM
32 | C=Cc1c(OC)cccc1C(=O)NN(C(=O)c1cc(C)cc(C)c1)C(C)(C)C [RG-102021] | – | 2951 | – | –
33 | CCc1ccc(C(=O)NN(C(=O)c2ccccc2CC)C(C)(C)C)cc1 [RG-102592] | 7 | 1265 | 0.798 | 7770 nM
34 | CCc1ccc(C(=O)NN(C(=O)c2cc(C)cc(C)c2)C(C)C(C)(C)C)cc1 (centres unmarked) [RG-103451] | 3326 | 3865 | 0.884 | 314 nM
35 | COCc1c(OC)cccc1C(=O)NN(C(=O)c1cc(C)cc(C)c1)C(C)(C)C [RG-115117] | – | 221 | – | –
